{"source": "patent US9090606B2", "about": "“Compounds” (CHIESI FARMACEUTICI S.p.A., priority 2012, dated 2015)", "origin": "cited, not measured here", "key": {"[1]": {"tested_on": "COPD patients"}, "[2]": {"tested_on": "smoking model of COPD in mice"}, "[3]": {"settings": "patients with severe disease, frequent exacerbations and mucus hypersecretion"}}, "data": [{"molecule": "O=C(Nc1c(Cl)cncc1Cl)c1ccc(OC(F)F)c(OCC2CC2)c1", "note": "[roflumilast]", "values": [{"measurement": "reduction of the numbers of neutrophils in sputum", "setting": "[1]; COPD patients, oral, given over 4 weeks", "value": 36, "unit": "%"}, {"measurement": "improvement of FEV 1", "setting": "[1]; [3]", "value": "approximately 50 mL"}, {"measurement": "reduction of exacerbation", "setting": "[1]; [3]", "value": "about 15%"}, {"measurement": "effect on lung inflammation and emphysema", "setting": "[2]", "value": "inhibits lung inflammation and emphysema"}]}]}
